The values that follow come from patent publication US20050165025A1, “Combination therapy with 5HT 1A and 5HT 1B-receptor antagonists” (Recordati Ireland Ltd., priority 2004, published 2005).

Read-outs that look alike come from different tables or passages of the source.

The target in test [1] is T1, human 5HT1A-serotonergic receptor (Homo sapiens, UniProt P08908).
T1 construct: expressed in transfected cells; host or cells: HeLa (human), stably transfected; cell membranes
T1 sequence (P08908 1-422): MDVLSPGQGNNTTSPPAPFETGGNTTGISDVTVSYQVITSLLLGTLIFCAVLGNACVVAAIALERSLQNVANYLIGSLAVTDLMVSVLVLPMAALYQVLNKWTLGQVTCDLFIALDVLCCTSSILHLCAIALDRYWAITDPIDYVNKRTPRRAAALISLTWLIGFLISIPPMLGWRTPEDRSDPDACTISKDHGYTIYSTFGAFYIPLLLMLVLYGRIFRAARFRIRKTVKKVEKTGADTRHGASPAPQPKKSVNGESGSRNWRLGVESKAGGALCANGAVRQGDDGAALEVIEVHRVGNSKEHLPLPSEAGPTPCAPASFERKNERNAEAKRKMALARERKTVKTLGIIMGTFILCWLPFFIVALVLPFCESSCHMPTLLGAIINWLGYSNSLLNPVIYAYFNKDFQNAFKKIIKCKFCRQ
The settings on record: literature reference given in table; read-out: Binding affinity at 5HT1A receptors, Ki; cited from earlier work.

The test system of another test is anaesthetised rats. Description: Rhythmic bladder-voiding contractions induced by bladder filling in anaesthetised rats. The class given is in vivo, rat. The note with it: compound alone. The procedure: Female Sprague-Dawley rats weighing 225-275 g (Crl: CDo Br, Charles River Italia) were used. The animals were housed with free access to food and water and maintained on a forced 12-hour alternating light-dark cycle at 22-24° C. for at least one week, except during the experiment. The activity on rhythmic bladder voiding contractions was evaluated according to the method of Dray J., Pharmacol. Methods, 13:157, 1985, with some modifications as in Guarneri (Guarneri, Pharmacol. Res. 27:173, 1993. Briefly, the rats were anaesthetised by subcutaneous injection of 1.25 g/kg (5 ml/kg) urethane, after which the urinary bladder was catheterised via the urethra using PE 50 polyethylene tubing filled with physiological saline. The catheter was tied in place with a ligature around the external urethral orifice and was connected to conventional pressure transducers (Statham P23 ID/P23 XL). […] The bladder was then filled via the recording catheter by incremental volumes of warm (37° C.) saline until reflex bladder-voiding contractions occurred (usually 0.8-1.5 ml). For intravenous injection of bioactive compounds, PE 50 polyethylene tubing filled with physiological saline was inserted into the jugular vein. Tested compounds were administered or co-administered in solution in a final volume of 0.5 ml/kg.
From the cystometrogram, the number of contractions recorded 15 minutes before (basal values) and after treatment, as well as the mean amplitude of these contractions (mean height of the peaks in mmHg), was evaluated.
Since most compounds produced an effect that was relatively rapid in onset and led to a complete cessation of bladder contractions, bioactivity was conveniently estimated by measuring the duration of bladder quiescence (i.e., the length of the time in minutes during which no contractions occurred: disappearance time=DT). The administered doses (alone or in combination) of the tested compounds were chosen on the basis of previously published results obtained with the same compounds in the utilized model (Testa et al., J. Pharmacol. Exp. Ther. 290: 1258, 1999; Leonardi et al., J. Pharmacol. Exp. Ther. 299: 1027, 2001; Testa et al., BJU Int. 87: 256, 2001) or of their affinity for the 5HT1A or 5-HT1B receptor.

Test [2] addresses T1, human 5HT1A-serotonergic receptor. Description: Radioligand binding to recombinant 5-HT1A receptors ([3H]8-OH-DPAT, HeLa cell membranes). The note with it: Recordati data on file; read-out: Binding affinity at 5HT1A receptors, Ki. The procedure: Genomic clone G-21 coding for the human 5HT1A-serotonergic receptor was stably transfected in a human cell line (HeLa). HeLa cells were grown as monolayers in Dulbecco's modified Eagle medium (DMEM), containing 10% fetal bovine serum, gentamicin ([…]) and 5% carbon dioxide, at 37° C. The cells were detached from the growth flask at 95% confluence by a cell scraper and were lysed in cold 5 mM Tris and 5 mM EDTA buffer (pH 7.4). The homogenates were centrifuged at 40000×g×20 minutes and the pellets were resuspended in a small volume of cold 5 mM Tris and 5 mM EDTA buffer (pH 7.4) and immediately frozen and stored at −70° C. until use. On the day of experiment, the cell membranes were resuspended in incubation buffer: 50 mM Tris HCl (pH 7.4), 2.5 mM MgCl2, […] (Fargin et al., Nature 335, 358, 1988). The membranes were incubated in a fmal volume of 1 ml for 30 minutes at 30° C. with 1 nM [^3H]8—OH-DPAT, in the absence or presence of the test compounds. Non-specific binding was determined in the presence of 10 μM 5-HT. […]
The affinity of the tested compounds was evaluated as inhibition of specific binding of the radioligand to 5-HT1A receptors (IC50) by using the non-linear curve-fitting program Allfit (De Lean et al., Am. J. Physiol. 235: E97, 1978). […]

In the case of `COc1ccccc1N1CCN(CCN(C(=O)C2CCCCC2)c2ccccc2[N+](=O)[O-])CC1` [REC 15/3079, 1-[N-(2-nitrophenyl)-N-cyclohexylcarbonyl-2-aminoethyl]-4-(2-methoxyphenyl)piperazine], in test [1], the inhibition constant (Ki) was 0.2 nM. Besides, the “disappearance time (DT) of bladder contractions” value (“disappearance time (DT)” for short) in the test on anaesthetised rats (0.03 mg/kg i.v.) was 2.26 ± 0.51 min.

Take `O=C1c2ccccc2S(=O)(=O)N1CCCCN1CCN(c2cc(Cl)cc3c2OCCO3)CC1` [Rec 0/031 1-DU 125530, 2-[4-[4-(7-chloro-2,3-dihydro-1,4-benzodioxin-5-yl)piperazin-1-yl]butyl]-1,2-benzisothiazol-3(2H)-one 1,1-dioxide]: the “disappearance time (DT)” value with anaesthetised rats (0.01 mg/kg i.v.) came to 6.96 ± 1.05 min. Take `OC(CCN1CCN(c2cccc3[nH]ccc23)CC1)(c1ccccn1)c1ccccn1` [Rec 27/0206, 1-[3-hydroxy-3,3 bis-(2-pyridyl)propyl]-4-(4-indolyl)piperazine]: the Ki in test [2] came to 4.75 nM. The “disappearance time (DT)” value in the test on anaesthetised rats (0.1 mg/kg i.v.) is 9.29 ± 0.80 min. Regarding `COc1ccc(NC(=O)c2ccc(-c3ccc(-c4noc(C)n4)cc3C)cc2)cc1OCCN(C)C` [SB 216641], the “disappearance time (DT)” value in the test with anaesthetised rats (0.3 mg/kg i.v.) is 1.50 ± 0.28 min. Consider `Cc1nc(-c2ccc(-c3ccc(C(=O)N4CCc5cc6c(cc54)C4(CCN(C)CC4)CO6)cc3)c(C)c2)no1` [SB 224289], for which the “disappearance time (DT)” value in the test with anaesthetised rats (1.0 mg/kg i.v.) was 2.40 ± 0.46 min.

On to `COc1ccccc1N1CCN(CCN(C(=O)C2CCCCC2)c2ccccn2)CC1` [WAY 100635, N-[2-[4-(2-methoxyphenyl)piperazin-1-yl]ethyl]-N-(2-pyridyl)cyclohexanecarboxamide], for which, in the test with anaesthetised rats (0.01 mg/kg i.v.), the “disappearance time (DT)” value worked out at 10.39 ± 1.45 min.

What is called Ki is the dissociation constant of the complex between target and ligand, obtained from inhibition or displacement.
